Consider 9 molecules from PMC6017121, “New Thiazoline-Tetralin Derivatives and Biological Activity Evaluation” (Molecules : A Journal of Synthetic Chemistry and Natural …, 2018).

Data set [1] relates to human breast adenocarcinoma cell line (MCF-7). Briefly: MTT cytotoxicity assay on MCF-7. In kind it is cell-based. The settings on record: for IC50: Homo sapiens, MCF7, MTT, 24 h incubation; for SI MCF-7 (selectivity index): NIH/3T3 versus MCF-7. As to the method:
(§1) This is a colorimetric assay that measures the reduction of 3-(4,5-dimethylthiazol-2-yl)-2,4,diphenyltetrazolium bromide (MTT) by mitochondria. All final compounds were tested against human breast adenocarcinoma cell line (MCF-7), human lung carcinoma cell line (A549) and mouse embryooblast cell line (NIH/3T3) to determine their cytotoxic profile. Cancer cells were cultured in RPMI medium (Hyclone, Thermo Scientific, Waltham, MA, USA) at 37 °C in a humidified atmosphere of 95% air and 5% CO2. The studied cells were situated at 2 × 10^4 cells into each well of 96-well microtiter tissue culture plates (Nunc, Denmark) and incubated for 24 h. After that, test compounds were dissolved in DMSO and added to culture wells at varying concentrations (85–1000 µM). After a 24 h incubating period, […] MTT solution (5 mg/mL MTT powder in PBS) was added to each well and the cells were incubated for 4 h at 37 °C. The purple formazan crystals produced were dissolved in DMSO and the absorbance was read by ELISA reader (OD570 nm). The percent values of cell proliferations were calculated relative to controls, whose cell proliferations were accepted as 100% [47].

The subject of data set [2] is human lung carcinoma cell line (A549). Put plainly: MTT cytotoxicity assay on A549. In kind it is cell-based. Conditions: for IC50: Homo sapiens, A549, MTT, 24 h incubation; for SI A549 (selectivity index): NIH/3T3 versus A549. As to the method: as §1
Data set [3] deals with mouse embryoblast cell line (NIH/3T3). Put plainly: MTT cytotoxicity assay on NIH/3T3 (healthy cells). Type of data set: cell-based. The settings on record: NIH3T3, 24 h incubation. The protocol:
as §1

For another data set, the system named is A549 cells. Briefly: Annexin V-FITC/propidium iodide flow cytometry on A549. Type of data set: cell-based, human. Conditions: A549 cell line, IC50 concentration; for % Early Apoptotic / % Late Apoptotic / % Necrotic / % Viable: 24 h. As to the method:
(§2) Evaluation of apoptosis was carried out through the Annexin V-FITC Apoptosis Detection Kit from BD, Pharmingen, according to the manufacturer’s instruction. […] Then cells were rinsed with cold water twice and resuspended in Annexin V-FITC binding buffer at a concentration of 1 × 10^6 cells/mL. […] of Annexin V-FITC was used to stain the cells. After 15 min of incubation at 25 °C, the cell suspension was centrifugated for 5 min and cells were resuspended in Annexin V-FITC binding buffer. Propidium iodide ([…]) was added and the tubes were situated on ice and away from light. The fluorescence was measured using a flow cytometer. The results were analyzed by using FCSExpress software and represented as percentage of normal and apoptotic cells at various stages. […] The four areas in the diagrams stand for necrotic cells (Q1, positive for PI and negative for annexin/FITC, left square on the top), live cells (Q3, negative for annexin and PI, left square at the bottom), late apoptotic or necrotic cells (Q2, positive for annexin and PI, right square on the top) and apoptotic cells (Q4, negative for PI and positive for annexin, right square at the bottom), respectively. The experiment was repeated three times.

In data set [4] the target is acetylcholinesterase (AChE) (Homo sapiens, UniProt P22303). Put plainly: biochemical. Conditions: 80 µg/mL (~160 µM). As to the method:
(§3) In order to determine the acetyl- and butyrylcholinesterase enzyme inhibitions, experiments were carried out by making some changes in the method developed by Ellman. Samples were prepared by dissolving in the appropriate solvent. Adding 20 μL enzyme solution (AChE or BuChE, 1 U/mL) and 10 μL sample solution to 2.4 mL buffer solution and it was incubated for 15 min at 37 °C. After incubation, 50 μL DTNB and 75 mM ATCI solution or 20 μL of 25 mM BTCI solution were added and allowed the mixture to incubate at room temperature for 30 min. For the control group, only 10 μL of solvent was added instead of the sample solution provided all protocols are the same. […] Experiments were run in triplicate. The inhibition fractions of AChE […] BuChE enzymes were calculated using the following equation:I(%) = 100 − ([…]) × 100

Data set [5] addresses butyrylcholinesterase (BuChE) (Homo sapiens, UniProt P06276). Briefly: biochemical. The settings on record: 80 µg/mL (~160 µM). The protocol: as §3
Data set [6] concerns MCF-7 cells. Put plainly: Annexin V-FITC/propidium iodide flow cytometry on MCF-7. In kind it is cell-based, human. The settings on record: MCF-7 cell line, IC50 concentration; for % Early Apoptotic / % Late Apoptotic / % Necrotic / % Viable: 24 h. The protocol:
as §2

Data set [7] has as its system MCF-7 cells. Put plainly: DNA synthesis inhibition (BrdU) on MCF-7.

Sequence of acetylcholinesterase (AChE) (P22303 32-614, species assumed): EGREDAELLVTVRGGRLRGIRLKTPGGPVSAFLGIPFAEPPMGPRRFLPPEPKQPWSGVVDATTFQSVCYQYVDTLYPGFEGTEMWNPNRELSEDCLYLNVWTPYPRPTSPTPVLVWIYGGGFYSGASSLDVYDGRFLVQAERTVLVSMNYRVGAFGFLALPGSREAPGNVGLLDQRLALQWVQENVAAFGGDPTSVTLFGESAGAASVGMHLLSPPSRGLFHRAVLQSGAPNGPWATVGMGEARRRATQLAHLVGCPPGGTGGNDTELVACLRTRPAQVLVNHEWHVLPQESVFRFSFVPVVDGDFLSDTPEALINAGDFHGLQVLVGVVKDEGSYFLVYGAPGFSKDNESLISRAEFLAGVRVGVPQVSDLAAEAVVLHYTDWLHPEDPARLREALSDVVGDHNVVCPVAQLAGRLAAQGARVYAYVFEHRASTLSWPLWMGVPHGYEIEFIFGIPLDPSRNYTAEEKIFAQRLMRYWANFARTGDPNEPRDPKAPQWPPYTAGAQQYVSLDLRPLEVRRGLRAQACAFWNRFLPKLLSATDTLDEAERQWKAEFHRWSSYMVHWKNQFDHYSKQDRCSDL
Sequence of butyrylcholinesterase (BuChE) (P06276 29-602): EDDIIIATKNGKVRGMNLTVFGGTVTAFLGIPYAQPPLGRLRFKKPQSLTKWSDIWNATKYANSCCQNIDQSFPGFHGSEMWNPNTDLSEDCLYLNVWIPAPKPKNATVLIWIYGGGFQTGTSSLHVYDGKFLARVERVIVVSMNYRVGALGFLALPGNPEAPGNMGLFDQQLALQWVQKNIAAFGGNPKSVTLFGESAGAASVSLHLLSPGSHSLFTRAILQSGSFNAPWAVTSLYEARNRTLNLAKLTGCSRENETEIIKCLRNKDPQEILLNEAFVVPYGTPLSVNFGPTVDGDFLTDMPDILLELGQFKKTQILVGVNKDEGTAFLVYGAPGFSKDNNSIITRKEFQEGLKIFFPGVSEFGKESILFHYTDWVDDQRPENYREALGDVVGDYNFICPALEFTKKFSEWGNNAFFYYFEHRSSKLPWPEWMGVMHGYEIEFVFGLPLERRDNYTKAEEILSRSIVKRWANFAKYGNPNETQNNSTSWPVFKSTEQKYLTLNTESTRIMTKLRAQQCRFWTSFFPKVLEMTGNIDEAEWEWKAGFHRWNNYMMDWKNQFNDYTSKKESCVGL

In the case of `O=C(COc1ccc2c(c1)CCCC2)NN=c1scc(-c2ccccc2)n1C1CCCCC1` [Compound 4a, N′-(3-Cyclohexyl-4-phenylthiazole-2(3H)-ylidene)-2-[(5,6,7,8-tetrahydronaphthalen-2-yl)oxy]acetohydrazide], in data set [1], the IC50 is greater than 1000 µM and the “SI MCF-7 (selectivity index)” value is listed as less than 0.2. Also, in data set [2], the IC50 was 158 ± 14.8 µM and the “SI A549 (selectivity index)” value came out at 1.3. For the same molecule, the IC50 in data set [3] came to 206 ± 15.3 µM. Besides, in the data set with A549 cells, the “apoptosis (early + late apoptotic cell percentage) A549” value is “over 50%”, the “% Early Apoptotic” value amounted to 7.4%, the “% Late Apoptotic” value is 48.3% and the “% Necrotic” value turned out to be 12.8%. Also, the “% Viable” value with A549 cells came to 31.5%. In data set [4], this molecule displayed an inhibition at 160 µM of 38.3 ± 2.18%. The inhibition at 160 µM in data set [5] is 28 ± 1.88%.

`O=C(COc1ccc2c(c1)CCCC2)NN=c1scc(-c2ccccc2)n1-c1ccccc1` [Compound 4c, N′-[3,4-Diphenylthiazole-2(3H)-ylidene]-2-[(5,6,7,8-tetrahydronaphthalen-2-yl)oxy]acetohydrazide]: the IC50 in data set [1] is 297 ± 46.6 µM; in data set [2], greater than 1000 µM; in data set [3], greater than 1000 µM. The “SI MCF-7 (selectivity index)” value in data set [1] is on record as greater than 3.4. Moreover, the figures for the inhibition at 160 µM in data set [4] and in data set [5] were 19.3 ± 1.87% and 16.48 ± 0.08%, respectively.

Turning to `Cc1ccc(-c2csc(=NNC(=O)COc3ccc4c(c3)CCCC4)n2-c2ccccc2)cc1` [Compound 4d, N′-[3-Phenyl-4-(4-methylphenyl)thiazole-2(3H)-ylidene]-2-[(5,6,7,8-tetrahydronaphthalen-2-yl)oxy]acetohydrazide], in data set [1], inhibition was half-maximal at 71.8 ± 12.5 µM (IC50) and the “SI MCF-7 (selectivity index)” value is greater than 13.9. The 50% inhibitory concentration (IC50) in data set [2] was greater than 1000 µM. The IC50 in data set [3] is greater than 1000 µM. Besides, in the data set with MCF-7 cells [6], the “% Early Apoptotic” value was 1.1%, the “% Late Apoptotic” value is 12.1%, the “% Necrotic” value is on record as 36.1% and the “% Viable” value is recorded as 50.7%. The inhibition at 160 µM in data set [4] is 43.2 ± 1.56%. In data set [5], this molecule yielded an inhibition at 160 µM of 33.2 ± 2.38%. Also, the inhibition at 71.8 µM in the data set with MCF-7 cells [7] (Homo sapiens, MCF7, 96 h, read-out: DNA synthesis inhibition on MCF-7 at IC50) came out at 72.2%. The “DNA synthesis inhibition on MCF-7 at IC50/2” value with MCF-7 cells [7] (IC50/2 concentration (4b 34.6 μM; 4d 36.9 μM, b49: 35.9 μM)) is 47.75%.

As to `COc1ccc(-c2csc(=NNC(=O)COc3ccc4c(c3)CCCC4)n2-c2ccccc2)cc1` [Compound 4e, N′-[3-Phenyl-4-(4-methoxyphenyl)thiazole-2(3H)-ylidene]-2-[(5,6,7,8-tetrahydronaphthalen-2-yl)oxy]acetohydrazide], in data set [1], the IC50 was 91.4 ± 9.8 µM and the “SI MCF-7 (selectivity index)” value was greater than 10.9. Moreover, in data set [2], the IC50 was 708 ± 83.3 µM and the “SI A549 (selectivity index)” value was greater than 1.4. This molecule also showed an IC50 in data set [3] greater than 1000 µM. Moreover, the “apoptosis (early + late apoptotic cell percentage) MCF-7” value in the data set with MCF-7 cells [6] worked out at 32.5%. For the same molecule, the inhibition at 160 µM in data set [4] turned out to be 10.8 ± 0.94%. This molecule yielded an inhibition at 80 µg/mL in data set [5] of less than 0%.

Consider `O=C(COc1ccc2c(c1)CCCC2)NN=c1scc(-c2ccc(Br)cc2)n1-c1ccccc1` [Compound 4f, N′-[3-Phenyl-4-(4-bromophenyl)thiazole-2(3H)-ylidene]-2-[(5,6,7,8-tetrahydronaphthalen-2-yl)oxy]acetohydrazide], for which, in data set [1], the IC50 is 281 ± 56.2 µM and the “SI MCF-7 (selectivity index)” value worked out at 0.5. For the same molecule, in data set [2], the IC50 is 54.3 ± 6.8 µM and the “SI A549 (selectivity index)” value was 2.7. In data set [3], this molecule yielded a half-inhibitory concentration (IC50) of 147 ± 5.4 µM. Further, in the data set with A549 cells, the “apoptosis (early + late apoptotic cell percentage) A549” value is “over 41.5%”, the “% Early Apoptotic” value is 16.5%, the “% Late Apoptotic” value turned out to be 29.3% and the “% Necrotic” value came to 6.5%. Besides, the “% Viable” value with A549 cells turned out to be 47.7%. This molecule came in with an inhibition at 160 µM in data set [4] of 42.9 ± 2.84%. In data set [5], this molecule yielded an inhibition at 80 µg/mL of less than 0%.

On to `O=C(COc1ccc2c(c1)CCCC2)NN=c1scc(-c2ccc(Cl)cc2)n1-c1ccccc1` [Compound 4g, N′-[3-Phenyl-4-(4-chlorophenyl)thiazole-2(3H)-ylidene]-2-[(5,6,7,8-tetrahydronaphthalen-2-yl)oxy]acetohydrazide], for which, in data set [1], the IC50 turned out to be 483 ± 31.2 µM and the “SI MCF-7 (selectivity index)” value was 0.5. In data set [2], the half-inhibitory concentration (IC50) stood at 28.6 ± 4.1 µM and the “SI A549 (selectivity index)” value is given as 7.8. The same molecule displayed a half-maximal inhibitory concentration (IC50) in data set [3] of 224 ± 20.5 µM. For the same molecule, in the data set on A549 cells, the “apoptosis (early + late apoptotic cell percentage) A549” value is recorded as “over 41.5%”, the “% Early Apoptotic” value was determined as 18.7%, the “% Late Apoptotic” value came out at 26.0% and the “% Necrotic” value came to 5.8%. In addition, the “% Viable” value in the data set on A549 cells is recorded as 49.4%. The molecule also registered an inhibition at 160 µM in data set [4] of 24.4 ± 1.2%. The molecule also returned an inhibition at 80 µg/mL in data set [5] of less than 0%.

As for `O=C(COc1ccc2c(c1)CCCC2)NN=c1scc(-c2cccc([N+](=O)[O-])c2)n1-c1ccccc1` [Compound 4i, N′-[3-Phenyl-4-(3-nitrophenyl)thiazole-2(3H)-ylidene]-2-[(5,6,7,8-tetrahydronaphthalen-2-yl)oxy]acetohydrazide], the concentration for half-maximal inhibition (IC50) in data set [1], in data set [2] and in data set [3] was greater than 1000 µM throughout. Also, the inhibition at 160 µM in data set [4] amounted to 41.85 ± 0.23%. The inhibition at 80 µg/mL in data set [5] was less than 0%.

In data set [1], `O=C(COc1ccc2c(c1)CCCC2)NN=c1scc(-c2ccc([N+](=O)[O-])cc2)n1-c1ccccc1` [Compound 4j, N′-[3-Phenyl-4-(4-nitrophenyl)thiazole-2(3H)-ylidene]-2-[(5,6,7,8-tetrahydronaphthalen-2-yl)oxy]acetohydrazide] returned an IC50 greater than 1000 µM. In data set [2], the half-maximal inhibitory concentration (IC50) worked out at 49 ± 1.41 µM and the “SI A549 (selectivity index)” value is listed as greater than 20.4. The half-maximal inhibitory concentration (IC50) in data set [3] is greater than 1000 µM. Besides, in the data set on A549 cells, the “apoptosis (early + late apoptotic cell percentage) A549” value is “over 41.5%”, the “% Early Apoptotic” value is 11.2%, the “% Late Apoptotic” value was 30.3% and the “% Necrotic” value came to 11.4%. In addition, in the data set with A549 cells, the “% Viable” value is reported as 47.0%. Moreover, 160 µM produced 45 ± 1.6% inhibition in data set [4]. In data set [5], this molecule had an inhibition at 80 µg/mL of less than 0%.

Regarding `O=C(COc1ccc2c(c1)CCCC2)NN=c1scc(-c2cccc(Cl)c2Cl)n1-c1ccccc1` [Compound 4k, N′-[3-Phenyl-4-(2,3-dichlorophenyl)thiazole-2(3H)-ylidene]-2-[(5,6,7,8-tetrahydronaphthalen-2-yl)oxy]acetohydrazide], in data set [1], the IC50 was found to be 153 ± 27.5 µM and the “SI MCF-7 (selectivity index)” value came to 1.1. Further, the IC50 in data set [2] is greater than 1000 µM. In data set [3], this molecule gave a concentration for half-maximal inhibition (IC50) of 165 ± 11 µM. In the data set with MCF-7 cells [6], the “% Early Apoptotic” value was 2.4%, the “% Late Apoptotic” value was found to be 8.9%, the “% Necrotic” value came to 34.4% and the “% Viable” value was determined as 54.3%. This molecule yielded an inhibition at 160 µM in data set [4] of 15.2 ± 1.99%. The molecule further yielded an inhibition at 80 µg/mL in data set [5] of less than 0%.
